# Reference: ChEMBL document CHEMBL1134030, “Synthesis and structure-activity relationships of guanine analogues as phosphodiesterase 7 (PDE7) inhibitors” (Bioorg Med Chem Lett, 2001)
# Activity calls are given as the source filed them.
# Experiments:
# Phosphodiesterase 7 [1] = biological target: T1, Phosphodiesterase 7 (Homo sapiens, UniProt Q13946+Q9NP56); assay: Inhibition of human Phosphodiesterase 7 of HUT-78 cells at 10 uM; assay type: cell-based
# [2] = biological target: T2, Phosphodiesterase 4 (Homo sapiens) (UniProt P27815+Q08499+Q07343+Q08493); assay: Inhibition of guinea pig Phosphodiesterase 4 at 10 uM; assay type: protein assay; conditions: Cavia porcellus, target entry is the homologue from another species
# Phosphodiesterase 7 [3] = biological target: T1, Phosphodiesterase 7; assay: Inhibition of human Phosphodiesterase 7 of HUT-78 cells at 10 uM (inactive); assay type: cell-based
# [4] = biological target: T2, Phosphodiesterase 4 (Homo sapiens); assay: Inhibition of guinea pig Phosphodiesterase 4 at 10 uM (inactive); assay type: protein assay; conditions: Cavia porcellus, target entry is the homologue from another species
# Phosphodiesterase 7 [5] = biological target: T1, Phosphodiesterase 7; assay: Inhibition of human Phosphodiesterase 7 of HUT-78 cells; assay type: cell-based
# [6] = biological target: T3, Phosphodiesterase 3 (Homo sapiens) (UniProt Q14432+Q13370); assay: Inhibition of guinea pig Phosphodiesterase 3 at 10 uM; assay type: protein assay; conditions: Cavia porcellus, target entry is the homologue from another species
# [7] = biological target: T3, Phosphodiesterase 3 (Homo sapiens); assay: Inhibition of guinea pig Phosphodiesterase 3 (PDE3) at 10 uM; assay type: protein assay; conditions: Cavia porcellus, target entry is the homologue from another species
# T1 sequence (Q13946 whole entry, looked up): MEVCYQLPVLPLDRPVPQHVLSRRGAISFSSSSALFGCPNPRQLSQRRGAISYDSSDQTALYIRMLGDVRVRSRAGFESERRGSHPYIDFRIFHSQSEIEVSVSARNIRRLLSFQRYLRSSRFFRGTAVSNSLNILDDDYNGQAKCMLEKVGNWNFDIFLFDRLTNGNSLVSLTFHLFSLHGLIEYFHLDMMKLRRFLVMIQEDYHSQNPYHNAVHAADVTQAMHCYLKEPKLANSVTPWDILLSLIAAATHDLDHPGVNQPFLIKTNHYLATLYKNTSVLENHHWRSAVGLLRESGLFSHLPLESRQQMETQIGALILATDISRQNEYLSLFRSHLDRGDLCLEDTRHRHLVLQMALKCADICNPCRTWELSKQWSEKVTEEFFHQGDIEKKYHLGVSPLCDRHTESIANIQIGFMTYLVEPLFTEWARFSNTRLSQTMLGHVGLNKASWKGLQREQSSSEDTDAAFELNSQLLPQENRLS
# T1 sequence (Q9NP56 whole entry, looked up): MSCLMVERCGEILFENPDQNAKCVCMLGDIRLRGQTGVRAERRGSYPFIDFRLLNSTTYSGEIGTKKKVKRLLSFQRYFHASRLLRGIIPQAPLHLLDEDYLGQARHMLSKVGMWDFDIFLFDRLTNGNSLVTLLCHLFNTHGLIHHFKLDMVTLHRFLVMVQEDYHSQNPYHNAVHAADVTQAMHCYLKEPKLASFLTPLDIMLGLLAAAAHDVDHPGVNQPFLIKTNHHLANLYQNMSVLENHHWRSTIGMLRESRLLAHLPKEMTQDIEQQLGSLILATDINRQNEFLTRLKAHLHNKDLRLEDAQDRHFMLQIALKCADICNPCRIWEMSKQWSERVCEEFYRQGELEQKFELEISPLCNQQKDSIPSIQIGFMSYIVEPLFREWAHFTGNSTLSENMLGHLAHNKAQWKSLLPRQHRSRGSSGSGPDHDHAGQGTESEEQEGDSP
inhibition (Phosphodiesterase 7 [1]) [%],inhibition [2] [%],IC50 (Phosphodiesterase 7 [5]) [µM],SMILES,other results
10,13,–,Nc1nc(O)c2nc(Br)n(C3CCCCc4ccc(F)cc43)c2n1 (centres undefined),–
4,7,–,Nc1nc(O)c2ncn(C3CCCc4ccccc43)c2n1 (centres undefined),–
–,–,–,Oc1ncnc2c1ncn2C1CCCc2ccccc21 (centres undefined),inhibition (Phosphodiesterase 7 [3]): inactive; inhibition [4]: inactive
–,10,1.31,Nc1nc(O)c2nc(Br)n(C3CCCc4cccc(Br)c43)c2n1 (centres undefined),inhibition [6]: 14%
–,42,2.31,Nc1nc(O)c2nc(Br)n(C3CCCc4ccc([N+](=O)[O-])cc43)c2n1 (centres undefined),inhibition [6]: 19%
–,20,4.22,COc1ccc2c(c1)C(n1c(Br)nc3c(O)nc(N)nc31)CCC2 (centres undefined),–
–,15,4.88,Nc1nc(O)c2nc(Br)n(C3CCCc4ccccc43)c2n1 (centres undefined),inhibition [7]: 30%
22,27,–,Nc1nc(O)c2nc(Br)n(C3CCc4ccccc43)c2n1 (centres undefined),–
